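Cultured in 96-well plates, cells were exposed to test compound for 48 hours across five concentrations. Here, GI50 denotes the concentration required for 50% inhibition of growth. The concentration for full growth arrest is given as TGI.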
What was measured:
Assay in all cases: inhibition of tumour cell growth, NCI panel, 48 h
NCI-H460 lung = system: NCI-H460 lung
SF-295 CNS = system: SF-295 CNS
HCC-2998 colon = system: HCC-2998 colon
OVCAR-8 ovarian = system: OVCAR-8 ovarian
HOP-62 NSCLC = system: HOP-62 NSCLC
SN12C renal = system: SN12C renal
UACC-62 melanoma = system: UACC-62 melanoma
MDA-MB-231 breast = system: MDA-MB-231 breast
SW-620 colon = system: SW-620 colon
786-0 renal = system: 786-0 renal
OVCAR-3 ovarian = system: OVCAR-3 ovarian
RXF 393 renal = system: RXF 393 renal
HCT-116 colon = system: HCT-116 colon
CCRF-CEM leukemia = system: CCRF-CEM leukemia
NCI-H226 lung = system: NCI-H226 lung
SF-268 CNS = system: SF-268 CNS
BT-549 breast = system: BT-549 breast
HS 578T breast = system: HS 578T breast
DU-145 prostate = system: DU-145 prostate
HCT-15 colon = system: HCT-15 colon
U251 CNS = system: U251 CNS
NCI/ADR-RES ovarian = system: NCI/ADR-RES ovarian
SK-MEL-28 melanoma = system: SK-MEL-28 melanoma
ACHN renal = system: ACHN renal
A498 renal = system: A498 renal
IGROV1 ovarian = system: IGROV1 ovarian
MCF7 breast = system: MCF7 breast
SF-539 CNS = system: SF-539 CNS
MDA-MB-435 = system: MDA-MB-435
T-47D breast = system: T-47D breast
UO-31 renal = system: UO-31 renal
SK-MEL-5 melanoma = system: SK-MEL-5 melanoma
A549 NSCLC = system: A549 NSCLC
MALME-3M melanoma = system: MALME-3M melanoma
SR leukemia = system: SR leukemia
SNB-75 CNS = system: SNB-75 CNS
NCI-H23 lung = system: NCI-H23 lung
PC-3 prostate = system: PC-3 prostate
SNB-19 CNS = system: SNB-19 CNS
OVCAR-5 ovarian = system: OVCAR-5 ovarian
KM12 colon = system: KM12 colon
CAKI-1 renal = system: CAKI-1 renal
SK-OV-3 ovarian = system: SK-OV-3 ovarian
K-562 leukemia = system: K-562 leukemia
COLO 205 colon = system: COLO 205 colon
HT29 colon = system: HT29 colon
OVCAR-4 ovarian = system: OVCAR-4 ovarian
LOX IMVI melanoma = system: LOX IMVI melanoma
NCI-H522 lung = system: NCI-H522 lung
SK-MEL-2 melanoma = system: SK-MEL-2 melanoma
TK-10 renal = system: TK-10 renal
MOLT-4 leukemia = system: MOLT-4 leukemia
HOP-92 NSCLC = system: HOP-92 NSCLC
M14 melanoma = system: M14 melanoma
RPMI-8226 leukemia = system: RPMI-8226 leukemia
UACC-257 melanoma = system: UACC-257 melanoma

COc1ccc(CCN=C2NC(=O)/C(=C/c3ccc4ncccc4c3)S2)cc1
GI50 (NCI-H460 lung): > 25 µM
TGI (NCI-H460 lung): > 25 µM
GI50 (SF-295 CNS): > 25 µM
TGI (SF-295 CNS): > 25 µM
GI50 (HCC-2998 colon): > 25 µM
TGI (HCC-2998 colon): > 25 µM
GI50 (OVCAR-8 ovarian): > 25 µM
TGI (OVCAR-8 ovarian): > 25 µM
GI50 (HOP-62 NSCLC): > 25 µM
TGI (HOP-62 NSCLC): > 25 µM
GI50 (SN12C renal): > 25 µM
TGI (SN12C renal): > 25 µM
GI50 (UACC-62 melanoma): > 25 µM
TGI (UACC-62 melanoma): > 25 µM
GI50 (MDA-MB-231 breast): > 25 µM
TGI (MDA-MB-231 breast): > 25 µM
GI50 (SW-620 colon): > 25 µM
TGI (SW-620 colon): > 25 µM
GI50 (786-0 renal): > 25 µM
TGI (786-0 renal): > 25 µM
GI50 (OVCAR-3 ovarian): > 25 µM
TGI (OVCAR-3 ovarian): > 25 µM
GI50 (RXF 393 renal): > 25 µM
TGI (RXF 393 renal): > 25 µM
GI50 (HCT-116 colon): > 25 µM
TGI (HCT-116 colon): > 25 µM
GI50 (CCRF-CEM leukemia): > 25 µM
TGI (CCRF-CEM leukemia): > 25 µM
GI50 (NCI-H226 lung): > 25 µM
TGI (NCI-H226 lung): > 25 µM
GI50 (SF-268 CNS): > 25 µM
TGI (SF-268 CNS): > 25 µM
GI50 (BT-549 breast): > 25 µM
TGI (BT-549 breast): > 25 µM
GI50 (HS 578T breast): > 25 µM
TGI (HS 578T breast): > 25 µM
GI50 (DU-145 prostate): > 25 µM
TGI (DU-145 prostate): > 25 µM
GI50 (HCT-15 colon): > 25 µM
TGI (HCT-15 colon): > 25 µM
GI50 (U251 CNS): > 25 µM
TGI (U251 CNS): > 25 µM
GI50 (NCI/ADR-RES ovarian): > 25 µM
TGI (NCI/ADR-RES ovarian): > 25 µM
GI50 (SK-MEL-28 melanoma): > 25 µM
TGI (SK-MEL-28 melanoma): > 25 µM
GI50 (ACHN renal): > 25 µM
TGI (ACHN renal): > 25 µM
GI50 (A498 renal): > 18.3 µM
TGI (A498 renal): > 25 µM
GI50 (IGROV1 ovarian): > 25 µM
TGI (IGROV1 ovarian): > 25 µM
GI50 (MCF7 breast): > 25 µM
TGI (MCF7 breast): > 25 µM
GI50 (SF-539 CNS): > 25 µM
TGI (SF-539 CNS): > 25 µM
GI50 (MDA-MB-435): > 25 µM
TGI (MDA-MB-435): > 25 µM
GI50 (T-47D breast): > 25 µM
TGI (T-47D breast): > 25 µM
GI50 (UO-31 renal): > 25 µM
TGI (UO-31 renal): > 25 µM
GI50 (SK-MEL-5 melanoma): > 25 µM
TGI (SK-MEL-5 melanoma): > 25 µM
GI50 (A549 NSCLC): > 25 µM
TGI (A549 NSCLC): > 25 µM
GI50 (MALME-3M melanoma): > 25 µM
TGI (MALME-3M melanoma): > 25 µM
GI50 (SR leukemia): 12.6 µM
TGI (SR leukemia): > 25 µM
GI50 (SNB-75 CNS): > 25 µM
TGI (SNB-75 CNS): > 25 µM
GI50 (NCI-H23 lung): > 25 µM
TGI (NCI-H23 lung): > 25 µM
GI50 (PC-3 prostate): > 25 µM
TGI (PC-3 prostate): > 25 µM
GI50 (SNB-19 CNS): > 25 µM
TGI (SNB-19 CNS): > 25 µM
GI50 (OVCAR-5 ovarian): > 25 µM
TGI (OVCAR-5 ovarian): > 25 µM
GI50 (KM12 colon): > 25 µM
TGI (KM12 colon): > 25 µM
GI50 (CAKI-1 renal): > 21.2 µM
TGI (CAKI-1 renal): > 25 µM
GI50 (SK-OV-3 ovarian): > 25 µM
TGI (SK-OV-3 ovarian): > 25 µM
GI50 (K-562 leukemia): > 25 µM
TGI (K-562 leukemia): > 25 µM
GI50 (COLO 205 colon): > 25 µM
TGI (COLO 205 colon): > 25 µM
GI50 (HT29 colon): > 25 µM
TGI (HT29 colon): > 25 µM
GI50 (OVCAR-4 ovarian): > 25 µM
TGI (OVCAR-4 ovarian): > 25 µM
GI50 (LOX IMVI melanoma): > 25 µM
TGI (LOX IMVI melanoma): > 25 µM
GI50 (NCI-H522 lung): > 25 µM
TGI (NCI-H522 lung): > 25 µM
GI50 (SK-MEL-2 melanoma): > 25 µM
TGI (SK-MEL-2 melanoma): > 25 µM
GI50 (TK-10 renal): > 25 µM
TGI (TK-10 renal): > 25 µM
GI50 (MOLT-4 leukemia): > 25 µM
TGI (MOLT-4 leukemia): > 25 µM
GI50 (HOP-92 NSCLC): > 11.3 µM
TGI (HOP-92 NSCLC): > 25 µM
GI50 (M14 melanoma): > 25 µM
TGI (M14 melanoma): > 25 µM
GI50 (RPMI-8226 leukemia): > 25 µM
TGI (RPMI-8226 leukemia): > 25 µM
GI50 (UACC-257 melanoma): > 25 µM
TGI (UACC-257 melanoma): > 25 µM
